Laboratory results reported in US20240336608A1, “IL4I1 INHIBITORS AND METHODS OF USE” (Merck Sharp & Dohme LLC, priority 2023, published 2024).

Molecular target: T1, recombinant IL4I1 (Homo sapiens, UniProt Q96RQ9)
T1 construct: purchased R&D Systems 5684-AO-020
T1 sequence (Q96RQ9 22-567): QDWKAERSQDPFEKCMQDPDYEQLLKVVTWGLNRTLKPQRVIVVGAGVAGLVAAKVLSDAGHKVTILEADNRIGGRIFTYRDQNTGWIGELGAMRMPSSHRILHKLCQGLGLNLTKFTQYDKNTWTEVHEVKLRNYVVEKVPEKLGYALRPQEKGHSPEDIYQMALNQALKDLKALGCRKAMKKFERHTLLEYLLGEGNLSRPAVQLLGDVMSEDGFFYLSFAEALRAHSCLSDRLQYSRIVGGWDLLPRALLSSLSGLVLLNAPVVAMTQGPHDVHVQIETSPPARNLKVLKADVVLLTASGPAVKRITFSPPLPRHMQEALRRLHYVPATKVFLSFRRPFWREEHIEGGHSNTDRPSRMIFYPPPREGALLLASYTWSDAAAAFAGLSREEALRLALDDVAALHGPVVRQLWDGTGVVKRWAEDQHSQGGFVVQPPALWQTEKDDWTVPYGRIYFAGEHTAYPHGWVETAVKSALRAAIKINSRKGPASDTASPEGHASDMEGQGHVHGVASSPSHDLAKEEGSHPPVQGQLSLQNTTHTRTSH
Assay: IL4I1 Enzymatic Assay (Amplex Red/HRP coupled detection of H2O2, fluorescence)
Assay type: biochemical
Conditions: 1 nM recombinant IL4I1; four-hour pre-incubation with compound; 1 mM each Phe, Tyr, Trp; ten-point titration
Summary of the method: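 Recombinant IL4I1 (1 nM final) pre-incubated 4 h at ambient temperature with compound (0.5% DMSO) in 50 mM Hepes pH 7.0, 0.005% Tween20; reaction started with 1 mM each Phe/Tyr/Trp plus excess Amplex Red/HRP, run 120 min. H2O2 read as resorufin fluorescence; EC50 from 10-point four-parameter fit.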

Row | SMILES | EC50
1 | O=C(NCc1nnc(-c2ccccc2)s1)c1cn(C2CC2(F)F)nn1 (single isomer, unassigned) [Example 131, 1-(2,2-difluorocyclopropyl)-N-((5-phenyl-1,3,4-thiadiazol-2-yl)methyl)-1H-1,2,3-triazole-4-carboxamide] | 54 nM
2 | O=C(NCc1nnc(-c2ccccc2)s1)c1cn(-c2cccnc2)nn1 [Example 242, N-((5-phenyl-1,3,4-thiadiazol-2-yl)methyl)-1-(pyridin-3-yl)-1H-1,2,3-triazole-4-carboxamide] | 705 nM
3 | C[C@H](O)[C@@H](C)n1cc(C(=O)NCc2nnc(-c3ccccc3)s2)nn1 [Example 169, 1-((2R,3S)-3-hydroxybutan-2-yl)-N-((5-phenyl-1,3,4-thiadiazol-2-yl)methyl)-1H-1,2,3-triazole-4-carboxamide] | 68 nM
4 | Cc1ccc(-n2cc(C(=O)NCc3ccc(-c4cc(F)ccc4F)nn3)nn2)c(C)n1 [Example 123, N-((6-(2,5-difluorophenyl)pyridazin-3-yl)methyl)-1-(2,6-dimethylpyridin-3-yl)-1H-1,2,3-triazole-4-carboxamide] | 223 nM
5 | Cn1cc(C(=O)NCc2nnc(N3CCCCC3)s2)nn1 [Example 294, 1-methyl-N-((5-(piperidin-1-yl)-1,3,4-thiadiazol-2-yl)methyl)-1H-1,2,3-triazole-4-carboxamide] | 251 nM
6 | Cn1cc(C(=O)NCc2nnc(-c3ccc(F)cc3)s2)nn1 [Example 219, N-{[5-(4-fluorophenyl)-1,3,4-thiadiazol-2-yl]methyl}-1-methyl-1H-1,2,3-triazole-4-carboxamide] | 154 nM
7 | CC(C)CCn1cc(C(=O)NCc2nnc(-c3ccccc3)s2)nn1 [Example 94, 1-isopentyl-N-((5-phenyl-1,3,4-thiadiazol-2-yl)methyl)-1H-1,2,3-triazole-4-carboxamide] | 68 nM
8 | Cn1c(C(=O)NCc2nnc(-c3ccccc3)s2)cc2ccccc21 [Example 54, 1-methyl-N-((5-phenyl-1,3,4-thiadiazol-2-yl)methyl)-1H-indole-2-carboxamide] | 322 nM
9 | CC1(n2cc(C(=O)NCc3nnc(-c4ccccc4)s3)nn2)CC(F)(F)C1 [Example 208, 1-(3,3-difluoro-1-methylcyclobutyl)-N-((5-phenyl-1,3,4-thiadiazol-2-yl)methyl)-1H-1,2,3-triazole-4-carboxamide] | 711 nM
10 | Cn1cc(-n2cc(C(=O)NCc3nnc(-c4ccccc4)s3)nn2)cn1 [Example 288, 1-(1-methyl-1H-pyrazol-4-yl)-N-((5-phenyl-1,3,4-thiadiazol-2-yl)methyl)-1H-1,2,3-triazole-4-carboxamide] | 39 nM
11 | CNC(=O)C(C)(C)n1cc(C(=O)NCc2nnc(-c3ccncc3)s2)nn1 [Example 321, 1-(2-methyl-1-(methylamino)-1-oxopropan-2-yl)-N-((5-(pyridin-4-yl)-1,3,4-thiadiazol-2-yl)methyl)-1H-1,2,3-triazole-4-carboxamide] | 51 nM
12 | CC(C)(O)Cn1cc(C(=O)NCc2nnc(-c3ccccc3)s2)nn1 [Example 323, 1-(2-hydroxy-2-methylpropyl)-N-((5-phenyl-1,3,4-thiadiazol-2-yl)methyl)-1H-1,2,3-triazole-4-carboxamide] | 205 nM
13 | CC(C)(C(N)=O)n1cc(C(=O)NCc2nnc(-c3ccncc3)s2)nn1 [Example 320, 1-(1-amino-2-methyl-1-oxopropan-2-yl)-N-((5-(pyridin-4-yl)-1,3,4-thiadiazol-2-yl)methyl)-1H-1,2,3-triazole-4-carboxamide] | 27 nM

Stronger by EC50, values ahead:

Row | EC50 | SMILES
14 | 25 nM | CC(C#N)n1cc(C(=O)NCc2cc(-c3ccncc3)on2)nn1 (single isomer, unassigned) [Example 275, 1-(1-cyanoethyl)-N-((5-(pyridin-4-yl)isoxazol-3-yl)methyl)-1H-1,2,3-triazole-4-carboxamide]
15 | 8 nM | NC(=O)C(F)(F)Cn1cc(C(=O)NCc2nnc(-c3ccccc3)s2)nn1 [Example 332, 1-(3-amino-2,2-difluoro-3-oxopropyl)-N-((5-phenyl-1,3,4-thiadiazol-2-yl)methyl)-1H-1,2,3-triazole-4-carboxamide]
16 | 8 nM | CC(C)Cc1cc(C(=O)NCc2nnc(-c3ccccc3)s2)no1 [Example 7, 5-isobutyl-N-[(5-phenyl-1,3,4-thiadiazol-2-yl)methyl]isoxazole-3-carboxamide]
17 | 25 nM | Cc1ccc(-n2cc(C(=O)NCc3ccc(-c4ccccc4)nn3)nn2)c(C)n1 [Example 261, 1-(2,6-dimethylpyridin-3-yl)-N-((6-phenylpyridazin-3-yl)methyl)-1H-1,2,3-triazole-4-carboxamide]
18 | 14 nM | N#CCn1cc(C(=O)NCc2nnc(-c3ccccc3)s2)nn1 [Example 74, 1-(cyanomethyl)-N-((5-phenyl-1,3,4-thiadiazol-2-yl)methyl)-1H-1,2,3-triazole-4-carboxamide]
19 | 24 nM | Cc1ccc(-n2cc(C(=O)NCc3nnc(-c4ccccc4)s3)nn2)c(C(C)(C)O)n1 [Example 338, 1-(2-(2-hydroxypropan-2-yl)-6-methylpyridin-3-yl)-N-((5-phenyl-1,3,4-thiadiazol-2-yl)methyl)-1H-1,2,3-triazole-4-carboxamide]
20 | 15 nM | COCCOCCn1cc(C(=O)NCc2nnc(-c3ccccc3)s2)nn1 [Example 85, 1-(2-(2-methoxyethoxy)ethyl)-N-((5-phenyl-1,3,4-thiadiazol-2-yl)methyl)-1H-1,2,3-triazole-4-carboxamide]
21 | 5 nM | O=C(NCc1nnc(-c2ccccc2)s1)c1cn([C@@H]2C[C@H]2CO)nn1 (single isomer, unassigned) [Example 141, Trans-1-(2-(hydroxymethyl)cyclopropyl)-N-((5-phenyl-1,3,4-thiadiazol-2-yl)methyl)-1H-1,2,3-triazole-4-carboxamide]
22 | 6 nM | Cc1nc(O)ccc1-n1cc(C(=O)NCc2nnc(-c3ccccc3)s2)nn1 [Example 230, 1-(6-hydroxy-2-methylpyridin-3-yl)-N-((5-phenyl-1,3,4-thiadiazol-2-yl)methyl)-1H-1,2,3-triazole-4-carboxamide]
23 | 15 nM | CC(NC(=O)c1cn(CC(F)F)nn1)c1nnc(-c2ccccc2)s1 (single isomer, unassigned) [Example 252, 1-(2,2-difluoroethyl)-N-(1-(5-phenyl-1,3,4-thiadiazol-2-yl)ethyl)-1H-1,2,3-triazole-4-carboxamide]
24 | 10 nM | O=C(NCc1nnc(-c2ccccc2)s1)c1cn(CC2(O)COC2)nn1 [Example 140, 1-((3-hydroxyoxetan-3-yl)methyl)-N-((5-phenyl-1,3,4-thiadiazol-2-yl)methyl)-1H-1,2,3-triazole-4-carboxamide]
25 | 7 nM | O=C(NCc1nnc(-c2ccccc2)s1)c1cn(C[C@@H](F)CO)nn1 [Example 165, (R)-1-(2-fluoro-3-hydroxypropyl)-N-((5-phenyl-1,3,4-thiadiazol-2-yl)methyl)-1H-1,2,3-triazole-4-carboxamide]
26 | 7 nM | O=C(NCc1nnc(-c2ccncc2)s1)c1cn(CC(F)F)nn1 [Example 347, 1-(2,2-difluoroethyl)-N-((5-(pyridin-4-yl)-1,3,4-thiadiazol-2-yl)methyl)-1H-1,2,3-triazole-4-carboxamide]
27 | 12 nM | Cc1ccc(-n2cc(C(=O)NCc3cc(-c4ccncc4)no3)nn2)c(C)n1 [Example 314, 1-(2,6-dimethylpyridin-3-yl)-N-((3-(pyridin-4-yl)isoxazol-5-yl)methyl)-1H-1,2,3-triazole-4-carboxamide]
